{"source": "ChEMBL document CHEMBL1121481", "about": "“Synthetic immunostimulants derived from the bacterial cell wall” (J Med Chem, 1980)", "key": {"[1]": {"test_system": "Limulus", "experiment": "Compound was evaluated by Limulus amoebocyte lysate test; Positive at 100 ug/mL", "format": "functional, organism-based"}, "[2]": {"species_on_record": "Oryctolagus cuniculus", "experiment": "Compound was tested for pyrogenicity in the rabbit; Delayed hypersensitivity", "format": "functional, organism-based"}, "[3]": {"test_system": "Mus musculus", "experiment": "Compound was tested for [3H]thymidine uptake in mouse spleen cell cultures; compound is pyrogenic at 1 mg/kg", "format": "functional, organism-based", "set-up": "dose 1 mg/kg"}, "[4]": {"test_system": "Cavia porcellus", "experiment": "Compound was tested for delayed hypersensitivity in guinea pig after administration in a water in oil emulsion; compound is pyrogenic at 1 mg/kg", "format": "functional, organism-based", "set-up": "dose 1 mg/kg"}, "[5]": {"test_system": "Mus musculus", "experiment": "Compound was tested for protective activity in mice infected with Klebsiella pneumoniae; compound is pyrogenic at 1 mg/kg", "format": "functional, organism-based", "set-up": "dose 1 mg/kg"}, "[6]": {"test_system": "Mus musculus", "experiment": "Compound was tested for antibody titer in mice after injection with antigen in saline; compound is pyrogenic at 1 mg/kg", "format": "functional, organism-based", "set-up": "dose 1 mg/kg"}, "[7]": {"test_system": "Cavia porcellus", "experiment": "Compound was tested for delayed hypersensitivity in guinea pig after administration in a water in oil emulsion; compound is non pyrogenic at 1 mg/kg", "format": "functional, organism-based", "set-up": "dose 1 mg/kg"}, "[8]": {"test_system": "Limulus", "experiment": "Compound was evaluated by Limulus amoebocyte lysate test; negative at 100 ug/mL", "format": "functional, organism-based"}, "[9]": {"test_system": "Mus musculus", "experiment": "Compound was tested for [3H]- -thymidine uptake in mouse spleen cell cultures; compound is pyrogenic at 1 mg/kg", "format": "functional, organism-based", "set-up": "dose 1 mg/kg"}, "[10]": {"test_system": "Oryctolagus cuniculus", "experiment": "Compound was tested for pyrogenicity in the rabbit; non pyrogenic at 1 mg/kg", "format": "functional, organism-based", "set-up": "dose 1 mg/kg"}, "[11]": {"test_system": "Cavia porcellus", "experiment": "Compound was tested for delayed hypersensitivity in guinea pig after administration in a water in oil emulsion; non pyrogenic at 1 mg/kg", "format": "functional, organism-based", "set-up": "dose 1 mg/kg"}, "[12]": {"test_system": "Limulus", "experiment": "Compound was evaluated by Limulus amoebocyte lysate test; positive at 10 ug/mL", "format": "functional, organism-based"}, "[13]": {"species_on_record": "Oryctolagus cuniculus", "experiment": "Compound was tested for pyrogenicity in the rabbit; non pyrogenic at […]", "format": "functional, organism-based"}, "[14]": {"test_system": "Mus musculus", "experiment": "Compound was tested for antibody titer in mice after injection with antigen in saline;compound is pyrogenic at 1 mg/kg", "format": "functional, organism-based", "set-up": "dose 1 mg/kg"}, "[15]": {"species_on_record": "Oryctolagus cuniculus", "experiment": "Compound was tested for pyrogenicity in the rabbit; pyrogenic at 100 ug/mL.", "format": "functional, organism-based"}, "[16]": {"test_system": "Limulus", "experiment": "Compound was evaluated by Limulus amoebocyte lysate test; positive at 100 ug/mL", "format": "functional"}, "[17]": {"test_system": "Mus musculus", "experiment": "Compound was tested for protective activity in mice infected with Klebsiella pneumoniae; compound is non pyrogenic at 1 mg/kg", "format": "functional, organism-based", "set-up": "dose 1 mg/kg"}, "[18]": {"test_system": "Mus musculus", "experiment": "Compound was tested for protective activity in mice infected with Klebsiella pneumoniae; non pyrogenic at 1 mg/kg", "format": "functional, organism-based", "set-up": "dose 1 mg/kg"}}, "data": [{"smiles": "COC(=O)CCC(NC(=O)C(C)NC(=O)C(C)OC1[C@H](O)C(CO)O[C@@H](O)[C@H]1NC(C)=O)C(=O)OC", "note": "(stereo partly specified)", "values": [{"measurement": "LAL test", "setting": "[1]", "result": "Positive at 100 ug/mL"}, {"measurement": "Pyrogenic effect", "setting": "[2]", "result": "Not toxic"}, {"measurement": "Mitogenic effect", "setting": "[3]", "result": "pyrogenic at 1 mg/kg"}, {"measurement": "Adjuvant effect", "setting": "[4]", "result": "pyrogenic at 1 mg/kg"}, {"measurement": "Anti-infectious effect", "setting": "[5]", "result": "pyrogenic at 1 mg/kg"}, {"measurement": "Adjuvant effect", "setting": "[6]", "result": "pyrogenic at 1 mg/kg"}]}, {"smiles": "CC(=O)N[C@H]1C(OC(C)C(=O)NC(C)C(=O)NC(CCC(=O)O)C(=O)O)[C@H](O)C(CO)O[C@H]1O", "note": "(stereo partly specified)", "values": [{"measurement": "Adjuvant effect", "setting": "[7]", "result": "Not toxic"}, {"measurement": "LAL test", "setting": "[8]", "result": "negative at 100 ug/mL"}, {"measurement": "Mitogenic effect", "setting": "[9]", "result": "pyrogenic at 1 mg/kg"}, {"measurement": "Pyrogenic effect", "setting": "[10]", "result": "Not toxic"}, {"measurement": "Anti-infectious effect", "setting": "[5]", "result": "pyrogenic at 1 mg/kg"}, {"measurement": "Adjuvant effect", "setting": "[6]", "result": "pyrogenic at 1 mg/kg"}]}, {"smiles": "CC(=O)N[C@H]1C(OC(C)C(=O)NC(C)C(=O)NC(CCC(N)=O)C(=O)O)[C@H](O)C(CO)O[C@H]1O", "note": "(stereo partly specified)", "values": [{"measurement": "Adjuvant effect", "setting": "[11]", "result": "Not toxic"}, {"measurement": "LAL test", "setting": "[12]", "result": "positive at 10 ug/mL"}, {"measurement": "Pyrogenic effect", "setting": "[13]", "result": "Not toxic"}, {"measurement": "Adjuvant effect", "setting": "[14]", "result": "pyrogenic at 1 mg/kg"}, {"measurement": "Mitogenic effect", "setting": "[9]", "result": "pyrogenic at 1 mg/kg"}, {"measurement": "Anti-infectious effect", "setting": "[5]", "result": "pyrogenic at 1 mg/kg"}]}, {"smiles": "CC(=O)N[C@H]1C(O)O[C@H](CO)[C@@H](O)[C@@H]1O[C@H](C)C(=O)N[C@@H](C)C(=O)N[C@H](CCC(=O)O)C(N)=O", "note": "(stereo partly specified)", "values": [{"measurement": "Pyrogenic effect", "setting": "[15]", "result": "pyrogenic at 100 ug/mL"}, {"measurement": "LAL test", "setting": "[16]", "result": "positive at 100 ug/mL"}, {"measurement": "Adjuvant effect", "setting": "[4]", "result": "pyrogenic at 1 mg/kg"}, {"measurement": "Mitogenic effect", "setting": "[9]", "result": "pyrogenic at 1 mg/kg"}, {"measurement": "Anti-infectious effect", "setting": "[5]", "result": "pyrogenic at 1 mg/kg"}, {"measurement": "Adjuvant effect", "setting": "[6]", "result": "pyrogenic at 1 mg/kg"}]}, {"smiles": "CC(=O)N[C@H]1[C@@H](O[C@@H](C)C(=O)N[C@@H](C)C(=O)N[C@H](CCC(=O)N[C@@H](CCCCN)C(=O)N[C@H](C)C(=O)O)C(N)=O)[C@H](O)[C@H](CO)O[C@H]1O", "values": [{"measurement": "Pyrogenic effect", "setting": "[15]", "result": "pyrogenic at 100 ug/mL"}, {"measurement": "LAL test", "setting": "[8]", "result": "Not toxic"}, {"measurement": "Anti-infectious effect", "setting": "[17]", "result": "Not toxic"}, {"measurement": "Adjuvant effect", "setting": "[4]", "result": "pyrogenic at 1 mg/kg"}, {"measurement": "Mitogenic effect", "setting": "[9]", "result": "pyrogenic at 1 mg/kg"}, {"measurement": "Adjuvant effect", "setting": "[6]", "result": "pyrogenic at 1 mg/kg"}]}, {"smiles": "COC(=O)C(CCC(N)=O)NC(=O)C(C)NC(=O)C(C)OC1[C@H](O)C(CO)O[C@@H](O)[C@H]1NC(C)=O", "note": "(stereo partly specified)", "values": [{"measurement": "LAL test", "setting": "[16]", "result": "positive at 100 ug/mL"}, {"measurement": "Pyrogenic effect", "setting": "[2]", "result": "Not toxic"}, {"measurement": "Adjuvant effect", "setting": "[4]", "result": "pyrogenic at 1 mg/kg"}, {"measurement": "Mitogenic effect", "setting": "[9]", "result": "pyrogenic at 1 mg/kg"}, {"measurement": "Adjuvant effect", "setting": "[6]", "result": "pyrogenic at 1 mg/kg"}, {"measurement": "Anti-infectious effect", "setting": "[18]", "result": "Not toxic"}]}]}
